Results from patent US6380243B1, “Aminopyridine-containing thiourea inhibitors of herpes viruses” (American Home Products Corporation, priority 1998, dated 2002).
Values after ≈ are worked out from the molar mass of the structure shown.

What was measured:
VZV strain Ellen = assay: VZV Antiviral (ELISA) Assay; assay type: cell-based, varicella-zoster virus; settings: Human alphaherpesvirus 3, 72 h; for IC50: human foreskin fibroblast cells, three days, read-out: IC50 (ug/ml) VZV; for inhibition at 10 µg/mL: read-out: % inhibition 10 ug/ml VZV, 10 ug/ml, human foreskin fibroblast cells, three days
Protocol: For the generation of stock VZV to be used in the assay, VZV strain Ellen (ATCC #VR-1367) is used to infect human foreskin fibroblast (HFF) cells at low multiplicity (less than 0.1) and incubated overnight at 37° C. in 5% CO2. After the overnight incubation, the mixture of uninfected and VZV-infected HFF infected cells are then harvested and added to each well of 96-well plates (3.5×10^4 cells in 100 1μl DMEM supplemented with 2% FBS) which contain test compound or the reference standard drug control (in 100 μl DMEM supplemented with 2% FBS per well). These cells are incubated for three days at 37° C. in 5% CO2, then fixed for ELISA assay. The primary antibody is murine anti-VZV glycoprotein II monoclonal antibody (Applied Biosystems, Inc. #13-145-100) and the secondary antibody is goat anti-mouse IgG linked to β-galactosidase. Thus the extent of viral replication is determined by assessing β-galactosidase activity by quantifying the generation of the 4-methyl umbelliferone fluorescent cleavage product after addition of the methyl umbelliferyl-β-D-galactoside (Sigma #M1633) substrate on a microfluorimeter (365 nm for excitation 450 nm for emission). Antiviral activity (IC50) of the test compound is determined by comparing the flourescence obtained in absence of compound to that obtained the presence of compound.

HSV-1 = assay: HSV Antiviral (ELISA) Assay; assay type: cell-based, herpes simplex virus type 1; settings: Human alphaherpesvirus 1, Vero cells, HSV-1, about 24 hours post-infection, read-out: IC50 (ug/ml) HSV
Protocol: Vero cells (ATCC #CCL-81) are plated on 96-well tissue culture plates at 3.5×10^4 cells per 100 μl tissue culture DMEM (Dulbecco's modified Eagle media) supplemented with 2% fetal bovine serum (FBS) in each well. After overnight incubation @37° C. (in 5% CO2) and 30 minutes prior to infection with HSV-1 (multiplicity of infection equal to 0.006), cells are either untreated, or treated with test compound (multiple concentrations) or reference standard drug control. After approximately 24 hours post-infection incubation @37° C. (in 5% CO2), cells are fixed for ELISA assay. The primary antibody is murine anti-HSV glycoprotein D monoclonal primary antibody and the secondary antibody is goat anti-mouse IgG linked to β-galactosidase. Thus the extent of viral replication is determined by assessing β-galactosidase activity by quantifying the generation of the 4-methyl umbelliferone fluorescent cleavage product after addition of the methyl umbelliferyl-β-D-galactoside (Sigma #M1633) substrate on a microfluorimeter (365 nm for excitation and 450 nm for emission). Antiviral activity (IC50) of the test compound is determined by comparing the flourescence obtained in absence of compound to that obtained in the presence of compound.

HCMV wild-type = assay: HCMV yield assay; assay type: cell-based, human cytomegalovirus; settings: Human betaherpesvirus 5, Fibroblast; human foreskin fibroblasts; reduction of virus yield by 50%; read-out: IC50 (ug/ml) HCMV
Protocol: Yield assay. Monolayer cultures of human foreskin fibroblasts are infected with HCMV wild-type, typically at a multiplicity of infection equal to 0.2, in the presence of inhibitor compound (varying concentrations). At three days post-infection, total virus produced in these cultures (i.e. virus yield) is assessed by harvesting and titering the virus in 12-well plates of cultured human foreskin fibroblasts (done in the absence of inhibitor). Plaques are quantified at 2 weeks post-infection. An inhibitor of HCMV is identified by the reduction in titer of virus yield in the presence, compared to the titer in the absence of compound. In this assay, the relative anti-HCMV activity of an inhibitor is typically determined by calculating the IC50 or IC90 value, that is, the amount of compound required to reduce the virus yield by 50% or 90%, respectively. Table I describes IC50 data for compounds tested against HCMV.

IC50 (HSV-1)	Structure (SMILES)	IC50 (VZV strain Ellen)	inhibition at 10 µg/mL (VZV strain Ellen)	IC50 (HCMV wild-type)
1.2 µg/mL (≈ 2.96 µM)	O=C(Nc1ccc(NC(=S)Nc2ccc3[nH]ncc3c2)cc1)c1ccccc1F [Example 483, 2-Fluoro-N-{4-[3-(1H-indazol-5-yl)-thioureido]-phenyl}-benzamide]	> 10 µg/mL	45%	5 µg/mL (≈ 12.3 µM)
9 µg/mL (≈ 22.4 µM)	CC(C)(C)n1ccnc1NC(=S)Nc1ccc(NC(=O)c2csnn2)cc1 [Example 608, [1,2,3]Thiadiazole-4-carboxylic acid {4-[3-(1-tert-butyl-1H-imidazol-2-yl)-thioureido]-phenyl}-amide]	> 10 µg/mL		> 0.5 µg/mL
> 10 µg/mL	O=C(Nc1ccc(NC(=S)NCc2cccnc2)cc1)c1ccco1 [Example 633, Furan-2-carboxylic acid [4-(3-pyridin-3-ylmethyl-thioureido)-phenyl]-amide]	> 10 µg/mL		0.34 µg/mL (≈ 0.965 µM)
> 10 µg/mL	CC(NC(=S)Nc1ccc(NC(=O)c2ccccc2F)cc1)c1ccncc1 (centres unmarked) [Example 803, 2-Fluoro-N-{4-[3-(1-pyridin-4-yl-ethyl)-thioureido]-phenyl}-benzamide]	> 7.5 µg/mL		> 10 µg/mL
9 µg/mL (≈ 20.2 µM)	CC(NC(=S)Nc1ccc(NC(=O)c2ccccc2F)cc1)c1nccc2ccccc12 (centres unmarked) [Example 1098, 2-Fluoro-N-{4-[3-(1-isoquinolin-1-yl-ethyl)-thioureido]-phenyl}-benzamide]	3.8 µg/mL (≈ 8.55 µM)		3.5 µg/mL (≈ 7.87 µM)
> 10 µg/mL	O=C(Nc1ccc(NC(=S)NCc2cccnc2)cc1)c1csnn1 [Example 634, [1,2,3]Thiadiazole-4-carboxylic acid [4-(3-pyridin-3-ylmethyl-thioureido)-phenyl]-amide]	> 10 µg/mL		0.12 µg/mL (≈ 0.324 µM)
8 µg/mL (≈ 21.8 µM)	O=C(Nc1ccc(NC(=S)Nc2ccncc2)cc1)c1ccccc1F [Example 444, 2-Fluoro-N-[4-(3-pyridin-4-yl-thioureido)-phenyl]-benzamide]	> 10 µg/mL	0%	4 µg/mL (≈ 10.9 µM)
10 µg/mL (≈ 24.3 µM)	CC(C)(C)n1ccnc1NC(=S)Nc1ccc(NC(=O)c2ccccc2F)cc1 [Example 593, N-{4-[3-(1-tert-Butyl-1H-imidazol-2-yl)-thioureido]-phenyl}-2-fluoro-benzamide]	> 10 µg/mL		> 0.5 µg/mL
> 10 µg/mL	CC(NC(=S)Nc1ccc(NC(=O)c2ccccc2F)cc1)c1ccc2ncccc2c1 (centres unmarked) [Example 1099, 2-Fluoro-N-{4-[3-(1-quinolin-6-yl-ethyl)-thioureido]-phenyl}-benzamide]	> 7.5 µg/mL		5.6 µg/mL (≈ 12.6 µM)
